Assay: xn = mol fraction of the nth substance listed
Details: 101 kPa, Liquid

CCOS(=O)(=O)[O-].CCn1cc[n+](C)c1 [1-ethyl-3-methylimidazolium ethyl sulfate] + CC#N
mass density [kg/m3]
Details | 278.15 K | 283.15 K | 288.15 K | 293.15 K | 298.15 K | 303.15 K | 308.15 K
x2 = 0 | 1251.04 | 1247.5 | 1244.04 | 1240.66 | 1237.27 | 1233.89 | 1230.51
x2 = 0.0051 | 1250.84 | 1247.29 | 1243.84 | 1240.44 | 1237.06 | 1233.68 | 1230.3
x2 = 0.0099 | 1250 | 1246.45 | 1243.01 | 1239.61 | 1236.22 | 1232.83 | 1229.45
x2 = 0.0202 | 1249.09 | 1245.54 | 1242.11 | 1238.69 | 1235.31 | 1231.91 | 1228.53
x2 = 0.0499 | 1245.66 | 1242.09 | 1238.68 | 1235.26 | 1231.85 | 1228.44 | 1225.03
x2 = 0.1001 | 1239.88 | 1236.38 | 1232.93 | 1229.48 | 1226.04 | 1222.6 | 1219.16
x2 = 0.1426 | 1236.22 | 1232.77 | 1229.28 | 1225.81 | 1222.35 | 1218.9 | 1215.45
x2 = 0.2507 | 1218.64 | 1215.07 | 1211.5 | 1207.95 | 1204.39 | 1200.86 | 1197.33
x2 = 0.3434 | 1202.08 | 1198.44 | 1194.79 | 1191.15 | 1187.54 | 1183.93 | 1180.33
x2 = 0.4592 | 1177.36 | 1173.6 | 1169.85 | 1166.12 | 1162.39 | 1158.68 | 1154.98
x2 = 0.5799 | 1140.91 | 1137 | 1133.1 | 1129.22 | 1125.35 | 1121.49 | 1117.63
x2 = 0.679 | 1101.24 | 1097.17 | 1093.12 | 1089.08 | 1085.03 | 1081 | 1076.97
x2 = 0.7423 | 1068.73 | 1064.52 | 1060.33 | 1056.15 | 1051.97 | 1047.8 | 1043.63
x2 = 0.7865 | 1041.05 | 1036.74 | 1032.43 | 1028.13 | 1023.83 | 1019.53 | 1015.24
x2 = 0.8539 | 988.5 | 983.97 | 979.43 | 974.91 | 970.37 | 965.84 | 961.31
x2 = 0.897 | 945.89 | 941.18 | 936.47 | 931.76 | 927.04 | 922.31 | 917.58
x2 = 0.9342 | 902.15 | 897.28 | 892.39 | 887.47 | 882.61 | 877.89 | 873.12
x2 = 0.9567 | 871.14 | 866.13 | 861.1 | 856.07 | 851.01 | 845.95 | 840.87
x2 = 0.9707 | 849.53 | 844.43 | 839.31 | 834.19 | 829.04 | 823.87 | 818.69
x2 = 0.9803 | 833.78 | 828.62 | 823.44 | 818.24 | 813.02 | 807.78 | 802.52
x2 = 0.9872 | 821.79 | 816.57 | 811.34 | 806.09 | 800.81 | 795.52 | 790.19
x2 = 0.9925 | 812.49 | 807.23 | 801.95 | 796.67 | 791.34 | 786 | 780.62
x2 = 0.9967 | 804.39 | 799.09 | 793.78 | 788.44 | 783.08 | 777.69 | 772.28

O [water] + CCOS(=O)(=O)[O-].CCn1cc[n+](C)c1
x1 = 1
Details | mass density [kg/m3]
278.15 K | 999.96
283.15 K | 999.69

CCOS(=O)(=O)[O-].CCn1cc[n+](C)c1 [1-ethyl-3-methylimidazolium ethyl sulfate] + O
mass density [kg/m3]
Details | 278.15 K | 283.15 K | 288.15 K | 293.15 K | 298.15 K | 303.15 K | 308.15 K
x2 = 0 | 1250.63 | 1247.18 | 1243.79 | 1240.39 | 1237 | 1233.63 | 1230.27
x2 = 0.0136 | 1250.46 | 1246.91 | 1243.47 | 1240.09 | 1236.7 | 1233.31 | 1229.93
x2 = 0.0253 | 1250.19 | 1246.63 | 1243.21 | 1239.82 | 1236.42 | 1233.03 | 1229.65
x2 = 0.0415 | 1249.8 | 1246.24 | 1242.85 | 1239.46 | 1236.06 | 1232.67 | 1229.29
x2 = 0.0729 | 1249.17 | 1245.66 | 1242.27 | 1238.88 | 1235.48 | 1232.09 | 1228.7
x2 = 0.1429 | 1247.67 | 1244.26 | 1240.85 | 1237.44 | 1234.04 | 1230.64 | 1227.25
x2 = 0.2344 | 1245.53 | 1242.12 | 1238.69 | 1235.28 | 1231.86 | 1228.46 | 1225.06
x2 = 0.392 | 1239.94 | 1236.5 | 1233.06 | 1229.63 | 1226.2 | 1222.78 | 1219.36
x2 = 0.5695 | 1228.84 | 1225.35 | 1221.87 | 1218.47 | 1214.98 | 1211.55 | 1208.12
x2 = 0.7408 | 1207.89 | 1204.4 | 1200.9 | 1197.39 | 1193.86 | 1190.33 | 1186.78
x2 = 0.9032 | 1149.37 | 1146.18 | 1142.95 | 1139.65 | 1136.37 | 1133.02 | 1129.61
x2 = 0.9577 | 1094.19 | 1091.9 | 1089.5 | 1086.99 | 1084.4 | 1081.7 | 1078.89
x2 = 0.984 | 1045.11 | 1043.88 | 1042.43 | 1040.71 | 1038.74 | 1036.44 | 1033.81
x2 = 0.9923 | 1023.67 | 1022.91 | 1021.88 | 1020.61 | 1019.12 | 1017.42 | 1015.54
x2 = 0.9963 | 1012.18 | 1011.69 | 1010.85 | 1009.45 | 1008.24 | 1006.56 | 1004.39

CO [methanol] + CCOS(=O)(=O)[O-].CCn1cc[n+](C)c1
x1 = 1
Details | mass density [kg/m3]
278.15 K | 805.53
283.15 K | 800.85
288.15 K | 796.16
293.15 K | 791.49
298.15 K | 786.77
303.15 K | 782.05
308.15 K | 777.3

CCOS(=O)(=O)[O-].CCn1cc[n+](C)c1 [1-ethyl-3-methylimidazolium ethyl sulfate] + CC(C)=O
mass density [kg/m3]
Details | 278.15 K | 283.15 K | 288.15 K | 293.15 K | 298.15 K | 303.15 K | 308.15 K
x2 = 0 | 1251.04 | 1247.5 | 1244.04 | 1240.66 | 1237.27 | 1233.89 | 1230.51
x2 = 0.0048 | 1250.35 | 1246.8 | 1243.35 | 1239.97 | 1236.57 | 1233.18 | 1229.8
x2 = 0.0098 | 1249.71 | 1246.16 | 1242.72 | 1239.31 | 1235.93 | 1232.54 | 1229.15
x2 = 0.015 | 1248.99 | 1245.43 | 1242 | 1238.59 | 1235.2 | 1231.8 | 1228.41
x2 = 0.0249 | 1247.95 | 1244.39 | 1240.97 | 1237.55 | 1234.16 | 1230.76 | 1227.37
x2 = 0.0399 | 1245.49 | 1241.93 | 1238.51 | 1235.1 | 1231.67 | 1228.26 | 1224.86
x2 = 0.06 | 1242.52 | 1238.99 | 1235.56 | 1232.12 | 1228.69 | 1225.26 | 1221.85
x2 = 0.0799 | 1239.64 | 1236.15 | 1232.7 | 1229.24 | 1225.79 | 1222.35 | 1218.92
x2 = 0.1002 | 1236.48 | 1233.02 | 1229.54 | 1226.07 | 1222.61 | 1219.16 | 1215.71
x2 = 0.1501 | 1228.75 | 1225.24 | 1221.72 | 1218.21 | 1214.71 | 1211.21 | 1207.73
x2 = 0.2066 | 1218.26 | 1214.69 | 1211.11 | 1207.54 | 1204 | 1200.46 | 1196.93
x2 = 0.2998 | 1200.04 | 1196.37 | 1192.71 | 1189.06 | 1185.43 | 1181.81 | 1178.19
x2 = 0.3999 | 1176.43 | 1172.65 | 1168.88 | 1165.13 | 1161.39 | 1157.66 | 1153.94
x2 = 0.5 | 1146.24 | 1142.32 | 1138.42 | 1134.53 | 1130.65 | 1126.78 | 1122.92
x2 = 0.6 | 1109.44 | 1105.35 | 1101.27 | 1097.2 | 1093.15 | 1089.1 | 1085.07
x2 = 0.7 | 1062.54 | 1058.23 | 1053.92 | 1049.61 | 1045.32 | 1041.02 | 1036.74
x2 = 0.8 | 1001.65 | 997.03 | 992.4 | 987.78 | 983.15 | 978.52 | 973.88
x2 = 0.9003 | 920.34 | 915.32 | 910.28 | 905.21 | 900.15 | 895.06 | 889.95
x2 = 0.95 | 869.49 | 864.22 | 858.92 | 853.61 | 848.26 | 842.89 | 837.49

CCO [ethanol] + CCOS(=O)(=O)[O-].CCn1cc[n+](C)c1
x1 = 1
Details | mass density [kg/m3]
278.15 K | 802.12
283.15 K | 797.89
288.15 K | 793.63
293.15 K | 789.37
298.15 K | 785.08
303.15 K | 780.77
308.15 K | 776.42

CCOS(=O)(=O)[O-].CCn1cc[n+](C)c1 [1-ethyl-3-methylimidazolium ethyl sulfate] + ClCCl
x2 = 0
Details | mass density [kg/m3]
278.15 K | 1251.04
283.15 K | 1247.5
288.15 K | 1244.04
293.15 K | 1240.66
298.15 K | 1237.27
303.15 K | 1233.89
308.15 K | 1230.51

Source: the NIST ThermoML archive (doi:10.1021/je1002237)
